{
  "source": "patent US8420638B2",
  "about": "“Triheterocyclic compounds and compositions thereof” (Gemin X Pharmaceuticals Canada Inc., priority 2003, dated 2013)",
  "key": {"[1]": {"system": "human prostatic adenocarcinoma cancer PC3 cells", "assay": "Growth of PC3 prostatic tumors in SCID mice", "assay_type": "in vivo", "conditions": "5 consecutive intravenous injections; 4.84 μMoles/Kg (Compound 1 Mesylate Salt), 4.84 or 14.51 μMoles/Kg (Compound 66); FIG. 6", "method": "The human prostatic adenocarcinoma cancer PC3 cells were purchased from the American Type Culture Collection (ATCC). These cells were confirmed to be free of mycoplasma infection. Cells were maintained in the Roswell Park Memorial Institute (RPMI), supplemented with 10% inactivated fetal bovine serum and 1% penicillin-streptomycin-L-Glutamine, under 5% carbon dioxide (CO2) at 37° C. For prostatic-tumor induction, cells were grown lower than 70% confluence in complete medium and then collected with trypsin (Bio Whittaker, Rockland, Me., USA). Cells were then centrifuged and washed 2 times in phosphate buffer solution (PBS) and resuspended in PBS at 1.5×10^6 cells/0.1 mL. PC3 cells were then transplanted subcutaneously into the flank of SCID mice (Charles River Laboratories, Wilmington, Mass., USA), as a suspension of tumor cells (1.5×10^6 cells in 100 μL PBS), under a laminar airflow hood. Eleven (11) days later, the size of each tumor was measured. […] Relative tumor size and volume was calculated as follows: length (cm)×[width (cm)]^2/2. […]"}, "[2]": {"assay": "Shelf stability (precipitation) of the formulated compound", "assay_type": "physicochemical", "conditions": "0.6 mg/mL in 9.6% polyethylene glycol 300, 0.4% polysorbate 20 and 5% dextrose", "method": "Compound 1 Tartrate salt solubility is equal to 0.1 mg/mL. […] This increase in solubility has a positive impact on the shelf stability of formulated Compound 1."}, "[3]": {"assay": "Body weight and deaths of tumor-bearing SCID mice under treatment", "assay_type": "in vivo, CB17 SCID/SCID mice", "conditions": "for change in body weight: 4.5 mg/kg IV once daily for five days, FIG. 2", "method": "(§1) There were three treatment groups of ten mice each: (a) a negative control group, (b) a positive control group and (c) a group treated with Compound 1 Tartrate.\n(§2) Treatments started on day fourteen after C33A cells transplantation. Compound 1 Tartrate was administered IV once daily for five consecutive days at a dose of 4.5 mg/kg. Compound 1 Tartrate was prepared fresh daily in a vehicle solution of 5% Dextrose (Abbot Laboratories, QC, Canada) and 2% polysorbate 20 (Sigma, St. Louis, Mo., USA). The negative control group was treated with vehicle alone. The injection volume for both Compound 1 Tartrate group and the negative control group was 150 μl.\n(§3) Observation continued for 40 days after initial tumor implantation."}, "[4]": {"system": "calf intestinal alkaline phosphatase", "assay": "Conversion of phosphate pro-drug by calf intestinal alkaline phosphatase in vitro", "assay_type": "in vitro ADME", "conditions": "15 μM, 0.02 U/100 μL enzyme, pH 7.4, 30-120 minutes; FIG. 5", "method": "(§4) The conversion into biologically active drug of phosphate pro-drugs by calf intestinal alkaline phosphatase and human placental alkaline phosphatase was measured in vitro using purified enzymes. Purified calf intestinal alkaline phosphatase (Roche Diagnostic Inc. Laval, Quebec, Canada) or human placental alkaline phosphatase (Sigma-Aldrich Canada Ltd. Oakville, Ontario, Canada) was added at a concentration of 0.02 U/100 μL to a solution containing 15 μM of Compound 66, 20 mM Tris-HCl, pH 7.4 and 0.9% NaCl. The solutions were incubated for 30, 60 or 120 minutes. A solution containing 15 μM of Compound 66, 20 mM Tris-HCl, pH 7.4 and 0.9% NaCl was used as a reference (time=0 minutes). To each solution, an equal volume (100 μL) of ice-cold acetonitrile was added, and then the mixture was vortexed and transferred to glass vials. A standard concentration curve of the pro-drug and the drug was prepared in 10 mM Tris-HCl, pH 7.4, 0.45% NaCl and 50% acetonitrile. All samples were immediately analyzed by LC/MS."}, "[5]": {"biological_target": "T1, human placental alkaline phosphatase (Homo sapiens, UniProt P05187)", "T1 construct": "purchased Sigma-Aldrich Canada Ltd", "T1 sequence (P05187 23-506)": "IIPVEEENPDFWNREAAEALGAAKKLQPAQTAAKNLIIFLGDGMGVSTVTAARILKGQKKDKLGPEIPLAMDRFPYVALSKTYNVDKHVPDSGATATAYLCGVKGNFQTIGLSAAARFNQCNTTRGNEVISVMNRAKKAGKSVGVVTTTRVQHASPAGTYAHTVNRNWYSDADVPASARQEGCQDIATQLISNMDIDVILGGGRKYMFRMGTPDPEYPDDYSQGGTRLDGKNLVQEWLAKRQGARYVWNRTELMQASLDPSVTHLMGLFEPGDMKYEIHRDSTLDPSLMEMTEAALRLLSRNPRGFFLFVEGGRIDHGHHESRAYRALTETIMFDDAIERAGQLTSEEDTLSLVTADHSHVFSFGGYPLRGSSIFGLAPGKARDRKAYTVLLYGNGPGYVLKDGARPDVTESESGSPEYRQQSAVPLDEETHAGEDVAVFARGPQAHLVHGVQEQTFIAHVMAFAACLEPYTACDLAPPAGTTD", "assay": "Conversion of phosphate pro-drug by human placental alkaline phosphatase in vitro", "assay_type": "in vitro ADME", "conditions": "15 μM, 0.02 U/100 μL enzyme, pH 7.4, 30-120 minutes; FIG. 4", "method": "as §4"}, "[6]": {"assay": "Solubility (0.2 μM filtration, LC/MS)", "assay_type": "physicochemical", "experimental": "To determine whether a compound is soluble in a solution, the solution was filtered on 0.2 μM polytetrafluoroethylene filters (Whatman Inc. Clifton, N.J., USA) and the compound concentration in the filtrate was measured by LC/MS and compared to the expected concentration.\nThe column used was XTerra MS C18: 50×2.1 mm, 3.5 mm column at 20° C. Samples were injected and separated under the following conditions: The mobile phase “A” consisted of 5 mM ammonium formate, 0.1% formic acid in water and mobile phase “B” consisted of 5 mM ammonium formate, 0.1% formic acid in methanol. […] The Mass Spectrometer system consisted of a Waters ZQ2000 single quadrupole mass spectrometer (Waters, Milford, Mass., USA) equipped with an Electrospray Ionization Source (ES). The mass detector was operated in positive ion mode (ES+) and Selected Ion Recording mode (SIR). Compounds were detected at m/z equal to their respective molecular weight plus 1."}, "[7]": {"system": "C33A human cervical cancer cells", "assay": "Growth of C33A cervical tumors in SCID mice", "assay_type": "in vivo, CB17 SCID/SCID mice", "method": "as §1, §2, §3"}, "[8]": {"system": "cancer cell lines H1299 and C33A; normal cell lines HMEC and MRC-5", "assay": "ATP levels in cancer versus normal cell lines (FIG. 1)", "assay_type": "cell-based", "conditions": "72 hours after treatment with 0.5 μM", "method": "One day after plating, the cells were treated with various concentrations of Compound 1 Tartrate. Stock solutions of the Compound 1 Tartrate were prepared in dimethyl sulfoxide (Sigma-Aldrich Inc., St. Louis, Mo., USA), diluted in the recommended media and then added to the cells. The total dimethyl sulfoxide on the cells was 1%. […] The results were plotted relative to untreated control cells, which were set at a value of 100."}},
  "note": "Counter-ions that a name gives are not always drawn.",
  "data": [
    {"molecule": "COC1=CC(c2cc3ccccc3[nH]2)=N/C1=C\\c1[nH]c(C)cc1C", "note": "[Compound 1 Mesylate Salt]", "values": [
      {"measurement": "growth of prostatic tumors", "setting": "[1]", "value": "significantly reduce the growth of prostatic tumors in mice"},
      {"measurement": "precipitation of the formulation", "setting": "[2]", "value": "shows no evidence of precipitation 72 hours after its preparation"}
    ]},
    {"molecule": "N.N.[Cl][Pt][Cl]", "note": "[cisplatin]", "values": [
      {"measurement": "deaths in the group", "setting": "[3]; days 29 and 32, 4 mg/kg IP, group of ten mice", "value": "Two mice died"},
      {"measurement": "body weight lost by the mouse that died", "setting": "[3]; mouse that died on day 29, 4 mg/kg IP", "value": 2.2, "unit": "g"},
      {"measurement": "body weight lost by the mouse that died", "setting": "[3]; mouse that died on day 32, 4 mg/kg IP", "value": 7, "unit": "g"}
    ]},
    {"molecule": "COC1=CC(c2cc3ccccc3n2C(=O)CC(C)(C)c2c(C)cccc2OP(=O)(O)O)=N/C1=C/c1[nH]c(C)cc1C", "note": "[Compound 66]", "values": [
      {"measurement": "growth of prostatic tumors", "setting": "[1]", "value": "significantly reduce the growth of prostatic tumors in mice"},
      {"measurement": "conversion of pro-drug into Compound 1", "setting": "[4]", "value": "convert a fraction of the pro-drug Compound 66 present in solution into the drug Compound 1 within two hours"},
      {"measurement": "conversion of pro-drug into Compound 1", "setting": "[5]", "value": "convert a fraction of the pro-drug Compound 66 present in solution into the drug Compound 1 within two hours"}
    ]},
    {"molecule": "COC1=CC(c2cc3ccccc3[nH]2)=N/C1=C\\c1[nH]c(C)cc1C", "note": "[Compound 1]", "values": [
      {"measurement": "solubility in water (in words)", "setting": "[6]; water", "value": "poorly soluble in water"}
    ]},
    {"molecule": "COC1=CC(c2cc3ccccc3[nH]2)=N/C1=C\\c1[nH]c(C)cc1C", "note": "[Compound 1 tartrate]", "values": [
      {"measurement": "reduction in tumor growth compared to vehicle", "setting": "[7]; 4.5 mg/kg IV once a day for five days, FIG. 3", "value": "statistically significant (p<0.0001) reduction in tumor growth"},
      {"measurement": "average tumor size compared to vehicle", "setting": "[7]; days 36 and 39, 4.5 mg/kg", "value": "significantly (p<0.001) smaller tumors on average"},
      {"measurement": "precipitation of the formulation", "setting": "[2]; listed as Compound 1 Tartrate Salt", "value": "tends to precipitate one hour after its preparation"},
      {"measurement": "effect on ATP levels in cancer cells versus normal cells", "setting": "[8]", "value": "significantly more effective at lowering ATP levels in the cancer cell lines H1299 and C33A compared with the ATP levels in normal cell lines HMEC and MRC-5"},
      {"measurement": "change in body weight", "setting": "[3]", "value": "no significant changes in body weight"},
      {"measurement": "change in body weight", "setting": "[3]; listed as Compound 1 Tartrate", "value": "non-significant weight loss"},
      {"measurement": "solubility", "setting": "[6]; water (stated for Compound 66), filtrate of 0.2 μM filter by LC/MS, listed as Compound 1 Tartrate salt", "value": 100, "unit": "µg/mL"}
    ]}
  ]
}
